Test results published in US11795196B2, “Mitochondria-targeting peptides” (Stealth BioTherapeutics Corp., priority 2017, dated 2023).

Test: 3H D-Arg-DMT-Lys-Phe-NH2 displacement filtration binding assay
Conditions: rat heart homogenate, 3H D-Arg-DMT-Lys-Phe-NH2 6-8 nM; range the pharmacological standard had to stay in (quality control)
Method: 1) Radioligand Displacement Methods and Procedures
1.1 Rat Heart Homogenate Preparation
Aptuit is committed to the highest standards of animal welfare and is subject to legislation under the Italian Legislative Decree no. 26/2014. All studies were conducted in accordance with national legislation and under authorization issued by the Italian Ministry of Health. The rat heart homogenate aliquots were prepared according to the following procedure. Hearts from 20 Sprague Dawley male rats were dissected out and quickly frozen at −80° C. On the day of homogenate preparation, hearts were thawed at 4° C. Groups of 2 hearts in 2 volumes of ice cold 20 mM HEPES, 1 mM EDTA, pH 7.4 buffer were homogenized with the GentleMACS dissociator (Miltenyi Biotec) using the D02 protocol. The final suspension of 20 hearts was divided in 4 aliquots with additional ice cold buffer up to 200 mL for each tube, homogenized with a Polytron and centrifuged at 24,000g for 40 min at 4° C. (T21 Sorvall, Rotor SL0250T, 13,500 rpm). For each tube, the supernatant was discarded, and the pellet resuspended with 100 mL of ice cold buffer, homogenized and centrifuged. This step was repeated twice. The final pellets were collected together in one tube with 70 mL of buffer. […] The protein content, measured with the Bradford (Bio-Rad) method using BSA as standard was 6.15 mg/mL. […]

## D-Arg-DMT-Lys-Phe-NH2 [SBT-031]
  pIC50, high affinity value of the unlabeled SBT-031 displacement curve: 7.6±0.5
